# Results as given in patent US10759831B2, “Peptide compound, production method therefor, and use thereof” (iNtRON Biotechnology, Inc., priority 2014, dated 2020).
# Columns and labels:
# [1] = tested on: liver cancer cell line SK-HEP-1; experiment: SRB cell viability assay, liver cancer cell line SK-HEP-1; type: cell-based; settings: Homo sapiens, SK-HEP1; SK-HEP-1, 72 hours; read-out: Cell growth inhibition concentration (IC50)
# Description: Regarding a lung cancer cell line A549 (Korean Cell line Bank), a colon cancer cell line HCT116 (ATCC), a stomach cancer cell line SNU638 (Korean Cell Line Bank), a liver cancer cell line SK-HEP-1 (Korean Cell line Bank), and a breast cancer cell line MDA-MB-231 (Korean Cell line Bank), a sulforhodamine B (SRB) assay which is a method of measuring cell viability was used for measuring apoptosis effects of Asperphenin.
# In detail, 190 μl of a cell suspension at a concentration of 3.5×10^4 cells/ml was inoculated in each well of a 96-well microplate. 0.8 μM, 4 μM, 20 μM, or 100 μM of Asperphenin was added to the cell culture medium, and cultured at a temperature of 37° C. for 72 hours under the condition of 5% CO2. After incubation, 50 μl of 50% (v/v) trichloroacetic acid solution (Sigma Aldrich) was added to each well, and then, incubated at a temperature of 4° C. for 30 minutes, to thereby fix the cells thereto. The fixed cells were washed with water five times, and then, dried in the air.
# Next, 80 μl of a 0.4% (w/v) SRB aqueous solution (Sigma Aldrich) containing 1% (v/v) acetic acid (DUKSAN) was added to each well, incubated at room temperature for 1 hour to stain cells therein, and the stained cells washed with water and dried. The cells were dissolved by adding 200 μl of 10 mM Tris (pH 10.0) (Sigma Aldrich) to each well, and then, the number of living cells was calculated by measuring the absorbance thereof at 515 nm. The concentration of the compound inhibiting cell growth to 50% based on the number of the living cells, i.e., 50% inhibition concentration (IC50) was calculated, and the results are shown in Table 3. Here, as a positive control, etoposide (Sigma Aldrich) was used.
# [2] = tested on: colon cancer cell line RKO; experiment: Cell cycle analysis by PI flow cytometry; type: cell-based, human
# Description: The effects of Asperphenin B on the cell cycle of the colon cancer cell line RKO was confirmed by flow cytometry.
# RKO cells (ATCC) were diluted in a medium containing 10% (v/v) FBS to become 1×10^5 cells/ml, and then, inoculated into a 60 mm culture dish. The inoculated cells were cultured for about 24 hours at a temperature of 37° C. under the condition of 5% CO2. The cultured cells were washed with phosphate-buffered saline (PBS) once, and the medium was replaced by a fresh medium. Asperphenin B at the final concentration of 0.625 μM, 1.25 μM, 2.5 μM, 5 μM, or 10 μM was added to the cultured cells, and then, the cells were cultured at a temperature of 37° C. under condition of 5% CO2.
# After a certain period of time, cells attached to the culture dish and cells not attached to the medium were collected. The collected cells was washed with PBS once, and then, 1 ml of cold 70% (v/v) ethanol. The cells were incubated at a temperature of 4° C. for about 12 hours to fix the cells. After removing 70% (v/v) ethanol, the fixed cells were washed with PBS once. 500 μl of RNase A (Sigma Aldrich) at a concentration of 50 μg/ml as added to the cells, and the cells were incubated at room temperature for about 30 minutes. Propidium iodide (PI) at a final concentration of 50 μg/ml was added to the cells, and then, the cells were incubated at room temperature for about 30 minutes in a condition where reactants were in the shaded state. The cells stained with PI were subjected to analysis of cell cycle by using a BD FACSCalibur flow cytrometer (manufactured by BD Biosciences). Based on the flow cytometry results, cell ratios at the sub-G1, G0/G1, S, and G2/M phases were calculated. Here, as a negative control, cells to which Asperphenin B was not added was used.
# When the RKO cells were incubated for 48 hours in the presence of Asperphenin B, cell ratios (%) dependent on the concentration of Asperphenin B are shown in FIG. 3A and Table 5. When the RKO cells were incubated in the presence of Asperphenin B at the concentrations of 2.5 μM and 5 μM, cell ratios (%) dependent on the incubation time are shown in FIGS. 3B and 3C, and Table 6.
# [3] = Physicochemical characterization
# [4] = RKO cells, 2.5 μM, 48 hours, Table 6
# [5] = RKO cells, 5 μM, 48 hours, Table 6
# [6] = RKO cells, 48 hours, 2.5 μM, Table 5
# [7] = RKO cells, 48 hours, 5 μM, Table 5
compound,measurement,setting,value
CCCCCCCCC[C@@H](O)CC(=O)N[C@@H](CC(N)=O)C(=O)N[C@@H](CCC(N)=O)C(=O)N[C@H](CC(=O)c1cc(C)cc(O)c1C(=O)c1c(O)cccc1O)CC(C)C [Asperphenin B],IC50,[1],3000 nM
same,Effect on cells in the G2/M phase,"[2]; 2.5 μM or 5 μM, until 24 hours of treatment",cell cycle arrest
same,Effect after 48 hours of treatment,"[2]; RKO cells, 2.5 μM or 5 μM, 48 hours",cell apoptosis was induced
same,"Cell ratio, G0/G1 phase","[2]; RKO cells, 2.5 μM, 6 hours",62.16%
same,"Cell ratio, G2/M phase","[2]; RKO cells, 2.5 μM, 6 hours",18.28%
same,"Cell ratio, S phase","[2]; RKO cells, 2.5 μM, 6 hours",13.82%
same,"Cell ratio, Sub-G1 phase","[2]; RKO cells, 2.5 μM, 6 hours",3.77%
same,"Cell ratio, G0/G1 phase","[2]; RKO cells, 2.5 μM, 12 hours",56.50%
same,"Cell ratio, G2/M phase","[2]; RKO cells, 2.5 μM, 12 hours",22.18%
same,"Cell ratio, S phase","[2]; RKO cells, 2.5 μM, 12 hours",15.09%
same,"Cell ratio, Sub-G1 phase","[2]; RKO cells, 2.5 μM, 12 hours",3.25%
same,"Cell ratio, G0/G1 phase","[2]; RKO cells, 2.5 μM, 24 hours",30.73%
same,"Cell ratio, G2/M phase","[2]; RKO cells, 2.5 μM, 24 hours",40.76%
same,"Cell ratio, S phase","[2]; RKO cells, 2.5 μM, 24 hours",17.38%
same,"Cell ratio, Sub-G1 phase","[2]; RKO cells, 2.5 μM, 24 hours",5.03%
same,"Cell ratio, G0/G1 phase",[2]; [4],17.80%
same,"Cell ratio, G2/M phase",[2]; [4],39.31%
same,"Cell ratio, S phase",[2]; [4],6.55%
same,"Cell ratio, Sub-G1 phase",[2]; [4],33.38%
same,"Cell ratio, G0/G1 phase","[2]; RKO cells, 5 μM, 6 hours",60.66%
same,"Cell ratio, G2/M phase","[2]; RKO cells, 5 μM, 6 hours",20.21%
same,"Cell ratio, S phase","[2]; RKO cells, 5 μM, 6 hours",13.48%
same,"Cell ratio, Sub-G1 phase","[2]; RKO cells, 5 μM, 6 hours",3.19%
same,"Cell ratio, G0/G1 phase","[2]; RKO cells, 5 μM, 12 hours",57.60%
same,"Cell ratio, G2/M phase","[2]; RKO cells, 5 μM, 12 hours",20.93%
same,"Cell ratio, S phase","[2]; RKO cells, 5 μM, 12 hours",14.63%
same,"Cell ratio, Sub-G1 phase","[2]; RKO cells, 5 μM, 12 hours",3.80%
same,"Cell ratio, G0/G1 phase","[2]; RKO cells, 5 μM, 24 hours",28.35%
same,"Cell ratio, G2/M phase","[2]; RKO cells, 5 μM, 24 hours",48.88%
same,"Cell ratio, S phase","[2]; RKO cells, 5 μM, 24 hours",14.08%
same,"Cell ratio, Sub-G1 phase","[2]; RKO cells, 5 μM, 24 hours",4.86%
same,"Cell ratio, G0/G1 phase",[2]; [5],20.53%
same,"Cell ratio, G2/M phase",[2]; [5],23.37%
same,"Cell ratio, S phase",[2]; [5],5.90%
same,"Cell ratio, Sub-G1 phase",[2]; [5],48.23%
same,"Cell ratio, G0/G1 phase","[2]; RKO cells, 48 hours, 0.625 μM",52.49%
same,"Cell ratio, G2/m phase","[2]; RKO cells, 48 hours, 0.625 μM",29.56%
same,"Cell ratio, S phase","[2]; RKO cells, 48 hours, 0.625 μM",8.11%
same,"Cell ratio, Sub-G1 phase","[2]; RKO cells, 48 hours, 0.625 μM",7.14%
same,"Cell ratio, G0/G1 phase","[2]; RKO cells, 48 hours, 1.25 μM",23.02%
same,"Cell ratio, G2/m phase","[2]; RKO cells, 48 hours, 1.25 μM",43.94%
same,"Cell ratio, S phase","[2]; RKO cells, 48 hours, 1.25 μM",6.39%
same,"Cell ratio, Sub-G1 phase","[2]; RKO cells, 48 hours, 1.25 μM",24.18%
same,"Cell ratio, G0/G1 phase",[2]; [6],17.99%
same,"Cell ratio, G2/m phase",[2]; [6],34.58%
same,"Cell ratio, S phase",[2]; [6],6.63%
same,"Cell ratio, Sub-G1 phase",[2]; [6],38.60%
same,"Cell ratio, G0/G1 phase",[2]; [7],17.59%
same,"Cell ratio, G2/m phase",[2]; [7],15.97%
same,"Cell ratio, S phase",[2]; [7],5.29%
same,"Cell ratio, Sub-G1 phase",[2]; [7],59.90%
same,"Cell ratio, G0/G1 phase","[2]; RKO cells, 48 hours, 10 μM",17.07%
same,"Cell ratio, G2/m phase","[2]; RKO cells, 48 hours, 10 μM",8.92%
same,"Cell ratio, S phase","[2]; RKO cells, 48 hours, 10 μM",5.46%
same,"Cell ratio, Sub-G1 phase","[2]; RKO cells, 48 hours, 10 μM",67.82%
same,Solubility in organic solvent,[3],"well dissolved in a moderate organic solvent, such as methanol and acetone"
same,Stability,[3],stable at room temperature
